Patent publication US9493483B2, “Benzo [C] isoxazoloazepine bromodomain inhibitors and uses thereof” (Constellation Pharmaceuticals, Inc., priority 2012, dated 2016)
Like-named read-outs stand apart in the source and are kept apart here.

Key:
OPM2 = assay: In vitro cancer cell line growth inhibition (GI50); type: cell-based; details: Homo sapiens, OPM-2; OPM2, Multiple myeloma, 72 hours, resazurin
Experimental: (§1) Method for GI50 Determination
(§2) Adherent cells were plated in 96-well plates and the following day compound titrations were added to the cells. Suspensions cells were plated directly in 96-well plates containing compound titrations. Compound titrations were comprised of 9 two-fold dilutions. Cells were incubated for 72 hours before analysis of viability with resazurin. Viability relative to DMSO treated cells was plotted to determine the absolute GI50 values.

DB = assay: In vitro cancer cell line growth inhibition (GI50); type: cell-based; details: Homo sapiens, DLBCL, 72 hours, resazurin
Experimental: as §1, §2

H526 = assay: In vitro cancer cell line growth inhibition (GI50); type: cell-based; details: Homo sapiens, NCI-H526; H526, Lung, 72 hours, resazurin
Experimental: as §1, §2

MOLM-13 = assay: In vitro cancer cell line growth inhibition (GI50); type: cell-based; details: Homo sapiens; MOLM-13, AML, 72 hours, resazurin
Experimental: as §1, §2

HT29 = assay: In vitro cancer cell line growth inhibition (GI50); type: cell-based; details: Homo sapiens, HT-29; HT29, Colorectal, 72 hours, resazurin
Experimental: as §1, §2

SU-DHL-8 = assay: In vitro cancer cell line growth inhibition (GI50); type: cell-based; details: Homo sapiens; SU-DHL-8, DLBCL, 72 hours, resazurin
Experimental: as §1, §2

A549 = assay: In vitro cancer cell line growth inhibition (GI50); type: cell-based; details: Homo sapiens; A549, Lung, 72 hours, resazurin
Experimental: as §1, §2

H23 = assay: In vitro cancer cell line growth inhibition (GI50); type: cell-based; details: Homo sapiens, NCI-H23; H23, Lung, 72 hours, resazurin
Experimental: as §1, §2

OCI-LY-19 = assay: In vitro cancer cell line growth inhibition (GI50); type: cell-based; details: Homo sapiens, OCI-LY19; OCI-LY-19, DLBCL, 72 hours, resazurin
Experimental: as §1, §2

WSU-DLCL-2 = assay: In vitro cancer cell line growth inhibition (GI50); type: cell-based; details: Homo sapiens, WSUDLCL2; WSU-DLCL-2, DLBCL, 72 hours, resazurin
Experimental: as §1, §2

SU-DHL-10 = assay: In vitro cancer cell line growth inhibition (GI50); type: cell-based; details: Homo sapiens, SU-DHL10; SU-DHL-10, DLBCL, 72 hours, resazurin
Experimental: as §1, §2

KARPAS 422 = assay: In vitro cancer cell line growth inhibition (GI50); type: cell-based; details: Homo sapiens; KARPAS 422, DLBCL, 72 hours, resazurin
Experimental: as §1, §2

DOHH2 = assay: In vitro cancer cell line growth inhibition (GI50); type: cell-based; details: Homo sapiens, DOHH-2; DOHH2, DLBCL, 72 hours, resazurin
Experimental: as §1, §2

ML-2 = assay: In vitro cancer cell line growth inhibition (GI50); type: cell-based; details: Homo sapiens; ML-2, AML, 72 hours, resazurin
Experimental: as §1, §2

DLD-1 = assay: In vitro cancer cell line growth inhibition (GI50); type: cell-based; details: Homo sapiens; DLD-1, Colorectal, 72 hours, resazurin
Experimental: as §1, §2

SU-DHL-6 = assay: In vitro cancer cell line growth inhibition (GI50); type: cell-based; details: Homo sapiens; SU-DHL-6, DLBCL, 72 hours, resazurin
Experimental: as §1, §2

HT = assay: In vitro cancer cell line growth inhibition (GI50); type: cell-based; details: Homo sapiens, DLBCL, 72 hours, resazurin
Experimental: as §1, §2

A2780 = assay: In vitro cancer cell line growth inhibition (GI50); type: cell-based; details: Homo sapiens; A2780, Ovarian, 72 hours, resazurin
Experimental: as §1, §2

SU-DHL-5 = assay: In vitro cancer cell line growth inhibition (GI50); type: cell-based; details: Homo sapiens; SU-DHL-5, DLBCL, 72 hours, resazurin
Experimental: as §1, §2

LP1 = assay: In vitro cancer cell line growth inhibition (GI50); type: cell-based; details: Homo sapiens, LP-1; LP1, Multiple myeloma, 72 hours, resazurin
Experimental: as §1, §2

U2932 = assay: In vitro cancer cell line growth inhibition (GI50); type: cell-based; details: Homo sapiens; U2932, DLBCL, 72 hours, resazurin
Experimental: as §1, §2

SU-DHL-4 = assay: In vitro cancer cell line growth inhibition (GI50); type: cell-based; details: Homo sapiens; SU-DHL-4, DLBCL, 72 hours, resazurin
Experimental: as §1, §2

THP-1 = assay: In vitro cancer cell line growth inhibition (GI50); type: cell-based; details: Homo sapiens; THP-1, AML, 72 hours, resazurin
Experimental: as §1, §2

MV4-11 = assay: In vitro cancer cell line growth inhibition (GI50); type: cell-based; details: Homo sapiens; MV4-11, AML, 72 hours, resazurin
Experimental: as §1, §2

KMS11 = assay: In vitro cancer cell line growth inhibition (GI50); type: cell-based; details: Homo sapiens, KMS-11; KMS11, Multiple myeloma, 72 hours, resazurin
Experimental: as §1, §2

143B = assay: In vitro cancer cell line growth inhibition (GI50); type: cell-based; details: Homo sapiens, Osteosarcoma, 72 hours, resazurin
Experimental: as §1, §2

ZR-75-1 = assay: In vitro cancer cell line growth inhibition (GI50); type: cell-based; details: Homo sapiens; ZR-75-1, Breast, 72 hours, resazurin
Experimental: as §1, §2

[1] = test system: IL-6 secretion in LPS-stimulated THP-1 cells; assay: Cell-based IL-6 quantification assay (ELISA, Mesoscale); details: LPS 4 μg/mL, 16 h, read-out: IL-6 Cellular EC50
Experimental: Cell-Based IL-6 Quantification Assay (ELISA, Mesoscale Assay):
100,000 THP-1 cells were seeded in RPMI1640-10% FBS in 96-well plates. LPS (E. Coli Invitrogen) in RPMI-10% FBS at a final concentration of 4 μg/mL was added to the wells and the cells are then incubated in the presence of various concentrations of compounds for 16 h. Plates are spun ([…], 5 min), an aliquot of 25 uL supernatant is transferred in to an ELISA plate (Mesoscale technology, MSD) and the detection of IL-6 is performed using manufacturer's instructions. The amount of cells in each well is assessed using CellTiter-Glo® (Promega). The ratio of ELISA value/CellTiter-Glo value is used to calculate the percent of inhibition of IL-6 secretion.

[2] = test system: MYC mRNA in MV4:11 (AML) or Raji (Burkitt's lymphoma) cells; assay: cMyc RNA quantification assay (QuantiGene); type: cell-based; details: MV4:11 or Raji cells, 4 h; read-out: MYC Cellular EC50
Experimental: cMyc RNA Quantification Assay (QuantiGene® Assay):
MV4:11 (AML) or Raji (Burkitt's lymphoma) cells were seeded in a 96-well plate and incubated in the presence of various concentrations of compounds for 4 h. Relative mRNA levels were quantitated by using QuantiGene 2.0 assay (Affymetrix) according to the manufacturer's recommendation. Signals were detected by using an Envision plate reader (Perkin-Elmer). Biological duplicates were averaged and normalized to vehicle (DMSO) control to calculate percent MYC mRNA levels.

BRD4(BD1) = BRD4(BD1) (Homo sapiens (Human), UniProt O60885); assay: BRD4 AlphaLisa binding assay; details: BRD4(BD1) 30 nM, H4-tetraacetyl peptide 200 nM; read-out: AlphaScreen IC50
Experimental: IC50 Measurements for Inhibitors Using BRD4 AlphaLisa Binding Assay
His/Flag epitope tagged BRD4 BD142-168 was cloned, expressed and purified to homogeneity. BRD4 binding and inhibition was assessed by monitoring the engagement of biotinylated H4-tetraacetyl peptide (Millipore #12-379) with the target using the AlphaLisa technology (Perkin-Elmer). Specifically, in a 384 well ProxiPlate BRD4(BD1) (30 nM final) was combined with peptide (200 nM final) in 40 mM HEPES (pH 7.0), 40 mM NaCl, 1 mM DTT, 0.01% (w/v) BSA, and 0.008% (w/v) Brij-35 either in the presence of DMSO (final 1.2% DMSO) or compound dilution series in DMSO. After 20 minute incubation at room temperature Alpha streptavidin donor beads and AlphaLisa anti-Flag acceptor beads were added to a final concentration of 10 ug/mL each. After three hours equilibration plates were read on an Envision instrument and IC50s calculated using a four parameter non-linear curve fit.

[3] = test system: MV4-11 lymphoblast cell subcutaneous xenograft; assay: Tumor growth inhibition in MV4-11 subcutaneous xenograft mouse model; type: in vivo; details: female nude mice, all cohorts: 1.5-3 mg/kg SC BID/QD, 3-10 mg/kg PO QD (Table 3)
Experimental: This study investigated the effects of Compound 401 on tumor growth inhibition in an MV4-11 lymphoblast cell subcutaneous xenograft mouse model.
A total number of 120 female nude mice were purchased. These mice were allowed 3 days of acclimatization period before experiments started. The cell suspension was carried to the animal room in an ice box. Mice were implanted subcutaneously (s.c.) with 200 μL of 10×10^6 MV4-11 cells in 50% Matrigel in the right flank at the beginning of the study. All the mice were observed everyday to monitor the health and tumor size.
When tumors reached an average volume of 150-200 mm^3, 100 out of the 120 mice were selected based on their tumor volume and randomly assigned to 10 groups prior to dosing. Each group consisted of 10 tumor-bearing mice (n=10/group).
Tumor-bearing mice were treated with Compound 401 or vehicle, by subcutaneous injection (5 mL/kg) or oral dose (10 mL/kg) starting on the day after randomization for 29 days according to Table 3.
Mice were weighed at each dosing and recorded every day. Mice were observed closely for any overt signs of adverse, treatment-related side effects, which if any were recorded. […] Tumor size was measured three times a week in two dimensions using a caliper, and the tumor volume (V) was expressed in mm^3 using the formula: V=0.5 a×b^2 where a and b were the long and short diameters of the tumor, respectively. […]

Cc1noc2c1-c1ccc(-c3cnn(C)c3)cc1C(c1ccc(Cl)cc1)=N[C@H]2CC(N)=O [Compound 401, 2-((4S)-6-(4-Chlorophenyl)-1-methyl-8-(1-methyl-1H-pyrazol-4-yl)-4H-benzo[c]isoxazolo[4,5-e]azepin-4-yl)acetamide]
GI50 (OPM2): 10 nM | GI50 (DB): 150 nM | GI50 (H526): 10 nM | GI50 (MOLM-13): 90 nM | GI50 (HT29): 200 nM | GI50 (SU-DHL-8): 100 nM | GI50 (A549): 460 nM | GI50 (H23): 210 nM | GI50 (OCI-LY-19): 60 nM | GI50 (WSU-DLCL-2): 45 nM | GI50 (SU-DHL-10): 100 nM | GI50 (KARPAS 422): 20 nM | GI50 (DOHH2): 60 nM | GI50 (ML-2): 60 nM | GI50 (DLD-1): 480 nM | GI50 (SU-DHL-6): 60 nM | GI50 (HT): 100 nM | GI50 (A2780): 90 nM | GI50 (SU-DHL-5): 325 nM | GI50 (LP1): 5 nM | GI50 (U2932): 625 nM | GI50 (SU-DHL-4): 150 nM | GI50 (THP-1): 65 nM | GI50 (MV4-11): 15 nM | GI50 (KMS11): 100 nM | GI50 (143B): 230 nM | GI50 (ZR-75-1): 300 nM | EC50 ([1]; Homo sapiens): 15 nM | EC50 [2]: 13 nM | IC50 (BRD4(BD1)): 14 nM | tumor volume reduction [3]: Statistically significant reductions in tumor volumes

Cc1noc2c1-c1ccc(-c3cnn(C)c3)cc1C(c1ccc(Cl)cc1)=N[C@H]2CC(N)=O [Compound 400, 2-((4S)-6-(4-chlorophenyl)-1-methyl-8-(1-trideuteromethyl-1H-pyrazol-4-yl)-4H-benzo[c]isoxazolo[4,5-e]azepin-4-yl)-^15N-acetamide]
EC50 [1]: 5 nM | EC50 [2]: 8 nM | IC50 (BRD4(BD1)): 18 nM

Cc1noc(-c2ccc3c(c2)C(c2ccc(Cl)cc2)=N[C@@H](CC(N)=O)c2onc(C)c2-3)n1 [Compound 404, 2-((4S)-6-(4-chlorophenyl)-1-methyl-8-(3-methyl-1,2,4-oxadiazol-5-yl)-4H-benzo[c]isoxazolo[4,5-e]azepin-4-yl)acetamide]
EC50 ([1]; Homo sapiens): 36 nM | EC50 [2]: 206 nM | IC50 (BRD4(BD1)): 270 nM

Cc1ccc(-c2ccc3c(c2)C(c2ccc(Cl)cc2)=N[C@@H](CC(N)=O)c2onc(C)c2-3)cn1 [Compound 403]
EC50 ([1]; Homo sapiens): 29 nM | EC50 [2]: 36 nM | IC50 (BRD4(BD1)): 28 nM

Cc1noc2c1-c1ccc(-c3cnn(C)c3)cc1C(c1ccc(Cl)cc1)=N[C@H]2CC(=O)N(C)C [Compound 402]
EC50 ([1]; Homo sapiens): 7 nM | EC50 [2]: 23 nM | IC50 (BRD4(BD1)): 13 nM

Cc1noc2c1-c1ccc(-c3cnn(C)c3)cc1C(c1ccc(Cl)cc1)=N[C@H]2CC(=O)O [Compound 405]
EC50 ([1]; Homo sapiens): 420 nM | EC50 [2]: 833 nM | IC50 (BRD4(BD1)): 175 nM
